“Also recorded” adds a separate entry of the source.
Assays:
[1] = test system: inducible PBzR overexpressing SH-SY5Y-derived cells (IPBR-1); test: apoptogen-driven caspase activation in tetracycline-inducible PBzR overexpressing SH-SY5Y-derived cells; format: cell-based
Protocol: (§1) Caspases are apoptosis-activated proteases, and caspase induction in cells is often indicative that the cells are undergoing programmed cell death (apoptosis). Apoptosis can be induced by a variety of compounds, including etoposide. S11 or vector control cells were plated at 30,000 cells/well in 96 well plates and grown for 20 hours. […] At this time, media was aspirated and caspase activity was measured by addition of 23 uM DEVD, a peptide that is fluorescent when cleaved by caspase 3, in PBS along with 0.03% digitonin. Fluorescence was measured in an Fmax™ 96-well plate reader (Molecular Devices, Sunnyvale, Calif.) using a kinetic assay. Total number of cells was determined using propidium iodide staining and used to normalize for total number of cells in each well.
The effect of tetracycline induced PBzR overexpression on apoptogen-driven (C2-ceramide, 80 μM, 8 hrs) caspase activation was examined in a selected, oligoclonal tetracycline-inducible PBzR overexpressing SH-SY5Y-derived cell line (FIG. 20). […] The caspase response also correlated with cell viability determinations (FIG. 22), consistent with presumed caspase roles in apoptotic cascades. […] Western blot analysis of IPBR-1 mitochondrial fractions isolated on metrizamide gradients and normalized on the basis of mitochondrial ETC Complex IV activity (as described above) confirmed a dramatic increase in PBzR expression. No discernible change in Bcl-2 expression levels, however, accompanied the induction of PBzR overexpression.

[2] = test system: S11 cells and vector control cells; test: caspase activation (DEVD cleavage) in S11 and vector control cells; format: cell-based
Protocol: as §1
Etoposide and ceramide treatments were as described above.

[3] = PK-11195 induced cell death, propidium iodide staining, S11 cells; format: cell-based; settings: human, read-out: percent of non-viable cells
Protocol: (§2) This provides apparent evidence for a functional link between PBR and Bcl-2. […] Cell viability was determined by propidium iodide staining cells and quantifying fluorescence with an Fmax™ plate reader (Molecular Devices, Sunnyvale, Calif.) according to the manufacturer's instructions.

S11 mitochondria = test: cytochrome C release upon calcium induced permeability transition; format: cell-based
[4] = target: T1, peripheral benzodiazepine receptor (PBR, PBzR) (Homo sapiens, UniProt P30536); test: [3H]PK-11195 saturation binding to cell membranes
T1 construct: expressed in transfected cells; membranes

[5] = PK-11195 induced cell death, propidium iodide staining, vector control cells; format: cell-based; settings: human, vector control cells (low Bcl-2 expression), read-out: percent of non-viable cells
Protocol: as §2

IPBR-1 cells = test: PBzR ligand effect on doxorubicin induced caspase activation in IPBR-1 cells; format: cell-based; settings: induced but not uninduced IPBR-1 cells, dose-dependent
Description: Accordingly, the present invention provides the unexpected finding that peripheral benzodiazepine ligands may be distinguished on the basis of whether they preferentially alter apoptosis, and whether they preferentially alter a mitochondrial function. Data also indicate that benzodiazepine-related PBR ligands can act as effective anti-apoptotic agents, which may be of benefit in the treatment of certain neuropathologies and/or in chronic inflammatory conditions.

PBzR = target: T2, PBzR (Homo sapiens, UniProt P30536); test: displacement of [3H]PK-11195 binding to the S11 PBzR overexpressing clone; settings: read-out: IC50, displacement of [3H]PK-11195; 6 μg S11 protein per data point
T2 construct: expressed in transfected cells; host or cells: S11, clonal SH-SY5Y-derived stably transfected PBzR-overexpressing line
Protocol: Additional experiments were performed to further characterize the binding of ligand to PBzR.
The S11 cell line was used as a source of PBzR.

T1 sequence (P30536 whole entry): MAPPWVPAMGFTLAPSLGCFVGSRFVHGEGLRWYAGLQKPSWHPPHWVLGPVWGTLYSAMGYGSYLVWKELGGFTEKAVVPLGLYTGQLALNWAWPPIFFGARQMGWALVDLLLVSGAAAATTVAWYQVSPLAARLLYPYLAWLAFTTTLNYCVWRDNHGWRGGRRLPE
T2 sequence (P30536 whole entry): as above

With `CCCCCCCCCCCCC/C=C/[C@@H](O)[C@H](CO)NC(C)=O` [C2-ceramide] the “caspase activation, induced versus uninduced cells” value ([1]; oligoclonal tetracycline-inducible line, 80 μM, 8 hrs) was “resistance to ceramide-stimulated caspase activation” and the “caspase activation, S11 cells versus vector controls” value ([2]; concentrations of 80 and 100 μM) was “much greater activation of caspase in vector control cells than in the S11 cells”.

In the case of `CCC(C)N(C)C(=O)c1cc2ccccc2c(-c2ccccc2Cl)n1` (stereo not drawn) [PK-11195, 1-(2-chlorophenyl)-N-methyl-N-(1-methylpropyl)-3-isoquinolinecarboxamide], the cytotoxicity at 24 h, 100 µM [3] is reported as < 20%, the “release of cytochrome C from mitochondria” value (S11 mitochondria) is reported as “caused a release of cytochrome C” and the “Bmax (pmol/mg)” value ([4]; Jurkat Vector) is reported as “Not detected”. For the same compound, the “Bmax” value ([4]; S11) was 43 pmol/mg, the “receptor concentration from saturation binding curves” value ([4]; S11 SY5Y clone / pooled over-expressors as worded) was 25 pmol/mg and the “Bmax” value ([4]; SH-SY5Y Vector) was 1.8 pmol/mg. The “binding maximum (BMAX)” value ([4]; native SY5Y cells) was 1.8 pmol/mg, the “binding maximum (BMAX)” value ([4]; stable PBR expressing SY5Y cells) was 25 ± 1.5 pmol/mg and the cytotoxicity at 24 h, 20 µM ([5]; 20 μM) was ~10%. The cytotoxicity at 24 h, 100 µM ([5]; 100 μM) was ~40%.

In the case of `CN1C(=O)CN=C(c2ccc(Cl)cc2)c2cc(Cl)ccc21` [RO 05-4864, 4′chlorodiazepam], the “effect on doxorubicin induced activation of caspase” value (IPBR-1 cells) is reported as “protective effect against the doxorubicin induced activation of caspase” and the IC50 (PBzR) is reported as 36.8 nM.

In the case of `Nc1c[n+](N2CCOCC2)no1.[Cl-]` [SIN-1, 3-morpholinosydnonimine, HCl], the “caspase activation, induced versus uninduced cells” value ([1]; IPBR-1, 100-400 μM) is reported as “resistance to caspase activation”.

For `COc1cccc2c1C(=O)c1c(O)c3c(c(O)c1C2=O)C[C@@](O)(C(=O)CO)C[C@@H]3O[C@H]1C[C@H](N)[C@H](O)[C@H](C)O1` [doxorubicin], the “caspase activation, induced versus uninduced cells” value ([1]; IPBR-1, 4 μM, 8 hrs) was “moderated the degree of caspase activation”.

In the case of `COc1cc([C@@H]2c3cc4c(cc3[C@@H](O[C@@H]3O[C@@H]5CO[C@@H](C)O[C@H]5[C@H](O)[C@H]3O)[C@H]3COC(=O)[C@H]23)OCO4)cc(OC)c1O` [etoposide], the “caspase activation, S11 cells versus vector controls” value ([2]; etoposide 2-6 μM, six hours) is reported as “caspase activation occurred at a higher rate in S11 cells than in vector controls; also recorded: greater activation of caspase in S11 cells than in vector controls”.

With `C/C=C(/C)C(=O)O[C@H]1C(C)=C2[C@H]([C@@H]1OC(=O)CCCCCCC)[C@@](C)(OC(C)=O)C[C@H](OC(=O)CCC)[C@@]1(O)[C@H]2OC(=O)[C@@]1(C)O` [thapsigargin] the “caspase activation, induced versus uninduced cells” value ([1]; tetracycline-induced IPBR-1) was “no reduction in caspase activation”.
